From patent publication US6962920B2, “Pyrimidine derivatives and methods of making and using these derivatives” (Duquesne University of the Holy Ghost, priority 1992, dated 2005)

Key:
HOP-62 = format: cell-based; conditions: Homo sapiens; HOP-62, Non-Small Cell Lung Cancer
A253 = assay: Growth inhibition of A253 human squamous carcinoma cell line; format: cell-based; conditions: Table 9, continuous (120 hours) exposure
Protocol: The performance of these compounds was evaluated against MTX.

HCC-2998 = assay: NCI in vitro anti-cancer activity, Colon Cancer; format: cell-based; conditions: Homo sapiens; HCC-2998, Colon Cancer
CCRF-CEM cells = assay: Growth inhibition of CCRF-CEM human leukemia cells, continuous exposure; format: cell-based; conditions: Table 8, continuous (0-120 hours) exposure, read-out: Growth inhibition EC50, CCRF-CEM
[1] = molecular target: T1, CCRF-CEM human leukemia cell folylpolyglutamate synthetase (Homo sapiens, UniProt Q05932); assay: Substrate activity for CCRF-CEM folylpolyglutamate synthetase; format: biochemical; conditions: Table 10
T1 construct: substrates for human leukemia cell CCRF-CEM folylpolyglutamate synthetase; endogenous in cells; host or cells: CCRF-CEM human leukemia cells
T1 sequence (Q05932 43-587): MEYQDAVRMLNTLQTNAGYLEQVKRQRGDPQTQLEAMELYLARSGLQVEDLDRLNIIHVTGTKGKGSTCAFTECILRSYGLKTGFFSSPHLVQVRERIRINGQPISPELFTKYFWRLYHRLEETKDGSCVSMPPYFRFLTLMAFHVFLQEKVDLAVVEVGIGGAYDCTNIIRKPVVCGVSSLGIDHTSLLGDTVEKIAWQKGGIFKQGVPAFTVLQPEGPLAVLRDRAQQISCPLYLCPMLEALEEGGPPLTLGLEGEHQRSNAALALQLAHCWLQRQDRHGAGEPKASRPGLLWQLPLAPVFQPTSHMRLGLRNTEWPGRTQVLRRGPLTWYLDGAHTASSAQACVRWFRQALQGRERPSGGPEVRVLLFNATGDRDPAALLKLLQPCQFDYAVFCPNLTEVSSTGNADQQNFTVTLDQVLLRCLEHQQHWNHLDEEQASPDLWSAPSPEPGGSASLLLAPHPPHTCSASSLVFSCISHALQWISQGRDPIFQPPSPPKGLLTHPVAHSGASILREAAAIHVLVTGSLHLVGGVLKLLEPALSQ
Protocol: Aminopterin is a classical 2,4-diamino antifolate substrate.
Compounds 33 and 34 were also evaluated for their substrate activity in CCRF-CEM human leukemia folylpolyglutamate synthetase; the compounds were compared against aminopterin.

L. casei DHFR = L. casei DHFR (Lacticaseibacillus casei, UniProt P00381); assay: Inhibition of Lactobacillus casei DHFR; format: biochemical; conditions: at […] 10^−5
L. casei DHFR, sequence (P00381 whole entry): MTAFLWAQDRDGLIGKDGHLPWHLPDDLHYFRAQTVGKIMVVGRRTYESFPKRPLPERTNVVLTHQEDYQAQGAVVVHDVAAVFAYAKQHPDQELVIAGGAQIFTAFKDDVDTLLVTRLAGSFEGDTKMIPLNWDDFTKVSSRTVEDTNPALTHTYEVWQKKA

SMILES: Nc1nc(N)c2c(CNc3ccc(C(=O)N[C@@H](CCC(=O)O)C(=O)O)cc3)c[nH]c2n1 [Compound 9]
- GI50 (HOP-62): < 10 nM
- EC50 (A253): 46 ± 4 nM
- GI50 (HCC-2998): < 10 nM
- EC50 (CCRF-CEM cells): 12.8 ± 2.2 nM
- Vmax(rel) ([1]; relative to aminopterin): 0.72 ± 0.07
- Km ([1]; substrate for FPGS): < 1 µM

SMILES: COc1ccc(CCc2cn(Cc3ccccc3)c3nc(N)nc(C)c23)cc1 [Compound 113-118]
- % inhibition obtained at the stated concentration, L. casei DHFR (L. casei DHFR): 0%
